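48-hour exposure; five concentrations; linearly interpolated endpoints. GI50 is the concentration that inhibits growth by half. At the TGI there is no net growth.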
Legend:
Assay in all cases: inhibition of tumour cell growth, NCI panel, 48 h
OVCAR-5 ovarian = tested on: OVCAR-5 ovarian
HT29 colon = tested on: HT29 colon
MCF7 breast = tested on: MCF7 breast
K-562 leukemia = tested on: K-562 leukemia
SF-295 CNS = tested on: SF-295 CNS
OVCAR-3 ovarian = tested on: OVCAR-3 ovarian
UO-31 renal = tested on: UO-31 renal
HCC-2998 colon = tested on: HCC-2998 colon
IGROV1 ovarian = tested on: IGROV1 ovarian
NCI-H460 lung = tested on: NCI-H460 lung
M14 melanoma = tested on: M14 melanoma
HOP-92 NSCLC = tested on: HOP-92 NSCLC
NCI-H522 lung = tested on: NCI-H522 lung
NCI-H226 lung = tested on: NCI-H226 lung
SW-620 colon = tested on: SW-620 colon
BT-549 breast = tested on: BT-549 breast
SNB-75 CNS = tested on: SNB-75 CNS
SF-268 CNS = tested on: SF-268 CNS
MDA-MB-231 breast = tested on: MDA-MB-231 breast
TK-10 renal = tested on: TK-10 renal
HL-60(TB) leukemia = tested on: HL-60(TB) leukemia
CCRF-CEM leukemia = tested on: CCRF-CEM leukemia
MDA-MB-435 = tested on: MDA-MB-435
HOP-62 NSCLC = tested on: HOP-62 NSCLC
NCI/ADR-RES ovarian = tested on: NCI/ADR-RES ovarian
SF-539 CNS = tested on: SF-539 CNS
SNB-19 CNS = tested on: SNB-19 CNS
LOX IMVI melanoma = tested on: LOX IMVI melanoma
DU-145 prostate = tested on: DU-145 prostate
RPMI-8226 leukemia = tested on: RPMI-8226 leukemia
ACHN renal = tested on: ACHN renal
HCT-116 colon = tested on: HCT-116 colon
HS 578T breast = tested on: HS 578T breast
OVCAR-8 ovarian = tested on: OVCAR-8 ovarian
PC-3 prostate = tested on: PC-3 prostate
SK-MEL-5 melanoma = tested on: SK-MEL-5 melanoma
U251 CNS = tested on: U251 CNS
RXF 393 renal = tested on: RXF 393 renal
HCT-15 colon = tested on: HCT-15 colon
UACC-62 melanoma = tested on: UACC-62 melanoma
COLO 205 colon = tested on: COLO 205 colon
MALME-3M melanoma = tested on: MALME-3M melanoma
UACC-257 melanoma = tested on: UACC-257 melanoma
SN12C renal = tested on: SN12C renal
SK-MEL-2 melanoma = tested on: SK-MEL-2 melanoma
SR leukemia = tested on: SR leukemia
T-47D breast = tested on: T-47D breast
CAKI-1 renal = tested on: CAKI-1 renal
KM12 colon = tested on: KM12 colon
EKVX NSCLC = tested on: EKVX NSCLC
NCI-H23 lung = tested on: NCI-H23 lung
OVCAR-4 ovarian = tested on: OVCAR-4 ovarian
786-0 renal = tested on: 786-0 renal
SK-OV-3 ovarian = tested on: SK-OV-3 ovarian
A549 NSCLC = tested on: A549 NSCLC
SK-MEL-28 melanoma = tested on: SK-MEL-28 melanoma
MOLT-4 leukemia = tested on: MOLT-4 leukemia
A498 renal = tested on: A498 renal

COC(=O)CCC1=C(C)/C(=C/c2[nH]c(-c3ccc[nH]3)cc2OC)N=C1C
GI50 (OVCAR-5 ovarian): 1040 nM | TGI (OVCAR-5 ovarian): 12900 nM | GI50 (HT29 colon): 267 nM | TGI (HT29 colon): 2030 nM | GI50 (MCF7 breast): 331 nM | TGI (MCF7 breast): 1430 nM | GI50 (K-562 leukemia): 374 nM | TGI (K-562 leukemia): 4900 nM | GI50 (SF-295 CNS): 833 nM | TGI (SF-295 CNS): 3640 nM | GI50 (OVCAR-3 ovarian): 397 nM | TGI (OVCAR-3 ovarian): 1700 nM | GI50 (UO-31 renal): 556 nM | TGI (UO-31 renal): 2920 nM | GI50 (HCC-2998 colon): 1370 nM | TGI (HCC-2998 colon): 6730 nM | GI50 (IGROV1 ovarian): 1400 nM | TGI (IGROV1 ovarian): 12000 nM | GI50 (NCI-H460 lung): 441 nM | TGI (NCI-H460 lung): 4880 nM | GI50 (M14 melanoma): 420 nM | TGI (M14 melanoma): 1800 nM | GI50 (HOP-92 NSCLC): 191 nM | TGI (HOP-92 NSCLC): 571 nM | GI50 (NCI-H522 lung): 413 nM | TGI (NCI-H522 lung): 1780 nM | GI50 (NCI-H226 lung): 380 nM | TGI (NCI-H226 lung): 1600 nM | GI50 (SW-620 colon): 333 nM | TGI (SW-620 colon): 1670 nM | GI50 (BT-549 breast): 493 nM | TGI (BT-549 breast): 5450 nM | GI50 (SNB-75 CNS): 382 nM | TGI (SNB-75 CNS): 3180 nM | GI50 (SF-268 CNS): 708 nM | TGI (SF-268 CNS): 7010 nM | GI50 (MDA-MB-231 breast): 223 nM | TGI (MDA-MB-231 breast): 1350 nM | GI50 (TK-10 renal): 2340 nM | TGI (TK-10 renal): 9220 nM | GI50 (HL-60(TB) leukemia): 414 nM | TGI (HL-60(TB) leukemia): 2380 nM | GI50 (CCRF-CEM leukemia): 306 nM | TGI (CCRF-CEM leukemia): 6500 nM | GI50 (MDA-MB-435): 454 nM | TGI (MDA-MB-435): 2500 nM | GI50 (HOP-62 NSCLC): 454 nM | TGI (HOP-62 NSCLC): 1530 nM | GI50 (NCI/ADR-RES ovarian): 434 nM | TGI (NCI/ADR-RES ovarian): 12300 nM | GI50 (SF-539 CNS): 1210 nM | TGI (SF-539 CNS): 5320 nM | GI50 (SNB-19 CNS): 2020 nM | TGI (SNB-19 CNS): 17500 nM | GI50 (LOX IMVI melanoma): 170 nM | TGI (LOX IMVI melanoma): 612 nM | GI50 (DU-145 prostate): 2170 nM | TGI (DU-145 prostate): 15100 nM | GI50 (RPMI-8226 leukemia): 272 nM | TGI (RPMI-8226 leukemia): 1380 nM | GI50 (ACHN renal): 840 nM | TGI (ACHN renal): 3750 nM | GI50 (HCT-116 colon): 331 nM | TGI (HCT-116 colon): 1410 nM | GI50 (HS 578T breast): 1040 nM | TGI (HS 578T breast): 9010 nM | GI50 (OVCAR-8 ovarian): 390 nM | TGI (OVCAR-8 ovarian): 6690 nM | GI50 (PC-3 prostate): 564 nM | TGI (PC-3 prostate): 12000 nM | GI50 (SK-MEL-5 melanoma): 96.5 nM | TGI (SK-MEL-5 melanoma): 248 nM | GI50 (U251 CNS): 343 nM | TGI (U251 CNS): 2430 nM | GI50 (RXF 393 renal): 352 nM | TGI (RXF 393 renal): 2070 nM | GI50 (HCT-15 colon): 265 nM | TGI (HCT-15 colon): 1950 nM | GI50 (UACC-62 melanoma): 295 nM | TGI (UACC-62 melanoma): 894 nM | GI50 (COLO 205 colon): 618 nM | TGI (COLO 205 colon): 1720 nM | GI50 (MALME-3M melanoma): 1140 nM | TGI (MALME-3M melanoma): 3270 nM | GI50 (UACC-257 melanoma): 871 nM | TGI (UACC-257 melanoma): 3970 nM | GI50 (SN12C renal): 2350 nM | TGI (SN12C renal): 18100 nM | GI50 (SK-MEL-2 melanoma): 273 nM | TGI (SK-MEL-2 melanoma): 813 nM | GI50 (SR leukemia): 317 nM | TGI (SR leukemia): 88700 nM | GI50 (T-47D breast): 378 nM | TGI (T-47D breast): 1860 nM | GI50 (CAKI-1 renal): 346 nM | TGI (CAKI-1 renal): 3150 nM | GI50 (KM12 colon): 389 nM | TGI (KM12 colon): 2390 nM | GI50 (EKVX NSCLC): 1460 nM | TGI (EKVX NSCLC): 10800 nM | GI50 (NCI-H23 lung): 587 nM | TGI (NCI-H23 lung): 3840 nM | GI50 (OVCAR-4 ovarian): 626 nM | TGI (OVCAR-4 ovarian): 2120 nM | GI50 (786-0 renal): 653 nM | TGI (786-0 renal): 3720 nM | GI50 (SK-OV-3 ovarian): 3930 nM | TGI (SK-OV-3 ovarian): 11600 nM | GI50 (A549 NSCLC): 565 nM | TGI (A549 NSCLC): 6320 nM | GI50 (SK-MEL-28 melanoma): 869 nM | TGI (SK-MEL-28 melanoma): 3550 nM | GI50 (MOLT-4 leukemia): 368 nM | TGI (MOLT-4 leukemia): 7080 nM | GI50 (A498 renal): 4710 nM | TGI (A498 renal): 18500 nM

Source: PubChem BioAssay (NCI)
